Data reported in patent US20220112470A1, “SYSTEMS AND METHODS FOR METABOLIC ENGINEERING” (THE TRUSTEES OF COLUMBIA UNIVERSITY IN THE CITY OF NEW YORK, priority 2019, published 2022).

Legend:
LexA-TetR fusion protein = biological target: T1, LexA-TetR fusion protein (Escherichia coli, UniProt P04483); experiment: Y3H LacZ assay for tetracyclines; type: cell-based, Saccharomyces cerevisiae
T1 construct: expressed in transfected cells; host or cells: Saccharomyces cerevisiae: FY250-derived PBA-8 (LacZ), LW2635-derived PBA-14 (URA3 growth), FY250-derived HL-2-4-1 (mCherry); the other entry of the earlier key: lexA (P0A7C2, LexA repressor)
Protocol: Protocol for Y3H LacZ Assay. […] Pelleting and resuspension were repeated once more. […] The assay plate was placed in the shaker overnight. OD measurements were then taken after 24 h, and the cells ere pelleted and resuspended in 100 μL of Z-buffer (60 mM Na2HPO4, 40 mM NaH2PO4, 10 mM KCl, 2 mM MgSO4, pH adjusted to 7, 2.7 mL/L of β-mercaptoethanol added fresh the day of the assay). The cells were pelleted again, resuspended in 100 μL of Y-PER buffer (Fisher Scientific, no. 78990), and lysed for 30 min at rt before the addition of o-nitrophenyl β-Dgalactopyranoside (ONPG) in Z-buffer (8.5 μL, 10 mg/mL). After 90 min, a Na2CO3 solution (1 M, 110 μL) was added to quench the reaction. After pelleting at 3000 rpm, 175 μL of the supernatant was transferred into flat clear-bottom 96-well plates (Corning no. 353072), and OD420 was measured. The limit of detection was calculated as the concentration of molecule at which the signal-to-noise ratio of the assay was >3:1.^32,33

[1] = relative to tetracycline, literature (ref. 55); cited from earlier work
TetR [2] = biological target: T2, TetR (Escherichia coli, UniProt P04483); conditions: literature (ref. 37); cited from earlier work
TetR [3] = biological target: T2, TetR; conditions: literature (ref. 37); cited from earlier work; remark: listed apart in the source
[4] = test system: LexA-TetR fusion proteins of TetR classes A, B, C, D, E, G and H; experiment: Y3H LacZ assay with varying TetR classes; type: cell-based, Saccharomyces cerevisiae; conditions: FIG. 2B
Protocol: Y3H Strain Construction. LexA-TetR Plasmids. Plasmids PBA-Gib5 and HL-249-1 through HL-249-6 encoding LexA-TetR protein fusions for the various TetR classes were cloned by Gibson Assembly of the appropriate TetR sequence with pMW103 digested with restriction enzymes BamHI-HF and EcoRI-HF (Table 3). All TetR sequences with the exception of B) were obtained as IDT gBlocks. TetR(B) sequence was amplified from pET21d-TetR, courtesy of A. Davidson.^25,26
LacZ Assay Strain Construction. V506 was grown overnight in UT-media.^27 The culture was then diluted […] with UT- and plated on UT-plates. Single colonies were streaked on HTU- and UT-plates and a streak growing on UT- but not on HTU-, indicating the loss of the pMW3-(GSG)2rGR2 plasmid, was glycerol stocked as PBA5. This strain was further used for the transformation of the LexA-TetR plasmids to generate LacZ assay strains PBA8 and HL-260-1 through HL-260-7.
Protocol for Y3H LacZ Assay. […] Pelleting and resuspension were repeated once more. […] The assay plate was placed in the shaker overnight. […] After pelleting at 3000 rpm, 175 μL of the supernatant was transferred into flat clear-bottom 96-well plates (Corning no. 353072), and OD420 was measured. The limit of detection was calculated as the concentration of molecule at which the signal-to-noise ratio of the assay was >3:1.^32,33

[5] = biological target: LexA-TetR(B) fusion protein (Escherichia coli, UniProt P04483); conditions: purified TAN-1612 0.5 μM in assay well, 10 μM CID, FIG. 4B
Protocol: Protocol for Fluorescent Protein Y3H Assay. Fresh patches of Y3H strain HL-2-4-1 were inoculated into HTU-media (1 mL) in 24-well plates (flat, clear bottom, Corning no. 3526) and placed in the shaker. After 24 h, the cells were pelleted by centrifugation at 3250 rpm and resuspended in H2O (1 mL). Pelleting and resuspension were repeated once more. OD600 was measured by diluting 10× into H2O, and the cells were diluted accordingly into H2O for OD600=1 to be used as a 10× solution. A total of 20 μL of cells of OD600=1 were added to the assay plate as the last component in the assay plate (flat, clear bottom, black 96-well plate, Corning no. 3603). […] Starting conditions in the assay plate were OD600=0.1, 2% galactose, 2% raffinose, 0% glucose, 1×HTU-, 10 μM CID, 2% DMSO. The assay plate was placed in the 30° C. shaker overnight before measuring OD600 and 620 nm fluorescence (λex=588 nm).^31
Overnight cultures were used to inoculate 100 mL of YPD in 500 mL conical flasks with a starting OD600 of 0.08. After 68 h, 1 mL of culture was pelleted in 1.5 mL Eppendorf tubes at 14 000 rpm, sterile filtered, and diluted 20× into H2O to be used as a 10× stock solution.
The plate was covered with two layers of SealMate film (Excel Scientific, SM-KIT-BS) and placed in a shaker overnight. […]

**Q.** Which results are given for 9-NH2-minocycline?
**A.** concentrations differentiated by the Y3H system (range) (LexA-TetR fusion protein; LacZ reporter, competition with Min-Mtx CID, FIG. 2C): 0.2 to 20 µM; acid stability [1]: high acid stability relative to tetracycline

**Q.** Which results are given for `Cc1c2c(c(O)c3c(O)cccc13)C(=O)C1(O)C(=O)C(C(N)=O)=C(O)CC1C2` (centres unmarked) [4-de(dimethylamino)-anhydrotetracycline]?
**A.** binding to TetR (TetR [2]): possible to detect binding; induction in TetR-TetO-based assay (TetR [3]): no induction was detected

**Q.** Which results are given for `CN(C)c1cc(NC(=O)CNC(=O)CC[C@H](NC(=O)c2ccc(N(C)Cc3ccc4nc(N)nc(N)c4c3)cc2)C(=O)O)c(O)c2c1C[C@H]1C[C@H]3C(N(C)C)C(O)=C(C(N)=O)C(=O)[C@@]3(O)C(O)=C1C2=O` (some centres unmarked) [Min-Mtx CID]?
**A.** reporter gene output dependence on CID (LexA-TetR fusion protein; varying concentrations of Min-Mtx CID, FIG. 2A): dependent upon the presence of the CID; response to the CID, best TetR classes ([4]; TetR(B) and TetR(G)): showed the best response to the CID; responsiveness of the Y3H system to the CID ([4]; all TetR classes tested as protein receptors): responsive to the CID with all known TetR classes except for the TetR(C) variant used

**Q.** For `COc1cc(O)c2c(O)c3c(cc2c1)CC1(O)CC(=O)C(C(C)=O)=C(O)C1(O)C3=O` (centres unmarked) [TAN-1612], which “Y3H signal (mCherry) of purified compound spiked into nonproducer supernatants” value [5] is on record?
**A.** resembles the signal obtained with producer supernatant
